The values below come from patent publication US7531671B2, “Dihydroisoindolones as allosteric modulators of glucokinase” (Janssen Pharmaceutica N.V., priority 2005, dated 2009).

pEC50: −log10 of the molar value. “And” between values parts separate entries of the source, which are not always exact repeats. Identical values can stand only once.

For the assay, the target named is T1, human liver Glucokinase (GK) (Homo sapiens, UniProt P35557).
T1 construct: (His)6; made in house; host or cells: Escherichia coli
T1 sequence (P35557 1-466 isoform P35557-2): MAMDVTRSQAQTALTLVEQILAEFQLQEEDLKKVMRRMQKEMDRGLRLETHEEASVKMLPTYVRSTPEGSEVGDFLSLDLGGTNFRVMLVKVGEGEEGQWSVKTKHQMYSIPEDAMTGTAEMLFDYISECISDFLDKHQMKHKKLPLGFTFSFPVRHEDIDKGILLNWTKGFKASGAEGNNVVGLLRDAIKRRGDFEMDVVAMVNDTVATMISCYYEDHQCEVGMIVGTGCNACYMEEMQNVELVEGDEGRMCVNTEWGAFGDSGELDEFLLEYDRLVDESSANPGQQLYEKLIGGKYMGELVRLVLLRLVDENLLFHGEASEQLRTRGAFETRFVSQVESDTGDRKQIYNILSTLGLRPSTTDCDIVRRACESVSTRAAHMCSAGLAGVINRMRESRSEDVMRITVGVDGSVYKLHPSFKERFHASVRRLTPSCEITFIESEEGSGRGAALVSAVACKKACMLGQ
Put plainly: Glucokinase enzyme assay, Liver GK data. The conditions noted are these: for pEC50: concentration producing 50% activation above vehicle control; for EC100%: concentration producing 100% activation above vehicle control. The class given is biochemical. From the text:
An enzymatic Glucokinase (GK) assay using purified recombinant human liver/pancreas enzyme was used to evaluate the effects of potential small molecule modulators.
In this assay, GK catalyzes glucose phosphorylation in the presence of ATP. The product of this reaction, glucose-6-phosphate, was then oxidized by an excess of glucose-6-phosphate dehydrogenase to produce gluconate-6-phosphate with concomitant reduction of nicotinamide adenine dinucleotide (NAD). […] Human GK (Liver/Pancreas) was expressed in Escherichia coli as a (His) 6-tagged fusion protein and was purified by metal chelate affinity chromatography. The assay was performed in a final incubation volume of 80 μl in a 96-well clear low UV absorption plates. The incubation mixture consisted of 25 mM HEPES, 2 mM MgSO4, 1 mM dithiothreotol (DTT), 1 mg/ml bovine serum albumin (BSA), 1 mM ATP, 1 mM NAD, and 12 mM glucose, 10 units per ml glucose-6-phosphate dehydrogenase, and +/−300 ng per ml GK. For determination of the affinity (Km) and Vmax, different concentrations of glucose ranging from 0.5 mM to 40 mM were used in the assay; see Grimsby, J., Sarabu, R.; Grippo, J. F.; et. al. Science 2003, 301, 370-373. Production of reduced NAD (Nicotinamide Adenine Dinucleotide) was measured as changes in absorption at 340 nm in 96-well plate reader (Envision model # 2101 Multilabel Plate reader). % Activation @ 50 μM was calculated as the percentage increase in GK activity above the vehicle control with the effective concentration of the compound being 50 μM. EC50% (μM) was calculated as the effective concentration of the compound that produces 50% activation above the vehicle control, and EC100% (μM) was calculated as the effective concentration of the compound that produces 100% activation above the vehicle control.

[1] abbreviates: compound 50 μM, percentage increase in GK activity above vehicle control, 12 mM glucose.

Take `O=C(CSC1c2ccccc2C(=O)N1Cc1cccs1)Nc1nccs1` (centres unmarked) [Compound 14, 2-(3-Oxo-2-thiophen-2-ylmethyl-2,3-dihydro-1H-isoindol-1-ylsulfanyl)-N-thiazol-2-yl-acetamide]: the pEC50 was 5.30 and the “EC100%” value turned out to be 19.4 µM.
Under setting [1], `O=C(CSC1c2ccccc2C(=O)N1Cc1cccs1)Nc1ncccn1` (centres unmarked) [Compound 16, 2-(3-Oxo-2-thiophen-2-ylmethyl-2,3-dihydro-1H-isoindol-1-ylsulfanyl)-N-pyrimidin-2-yl-acetamide] displayed an activation at 50 µM of 13%.
`O=C(CSC1c2ccccc2C(=O)N1Cc1ccccc1)Nc1ccc(C(=O)O)cn1` (centres unmarked) [Compound 19, 6-[2-(2-Benzyl-3-oxo-2,3-dihydro-1H-isoindol-1-ylsulfanyl)-acetyamino]-nicotinic acid] gave a negative logarithm of the EC50 (pEC50) of 5.49. This molecule also returned an activation at 50 µM under setting [1] of 146%.
For `O=C(COC1c2ccccc2C(=O)N1Cc1ccccc1)Nc1ccccn1` (centres unmarked) [Compound 23, 2-(2-Benzyl-3-oxo-2,3-dihydro-1H-isoindol-1-yloxy)-N-pyridin-2-yl-acetamide], the pEC50 was 5.75 and the “EC100%” value was determined as 8.71 µM. Also, the activation at 50 µM under setting [1] amounted to 164%.
As to `O=C(CNC1c2ccccc2C(=O)N1Cc1ccccc1)Nc1ccccn1` (centres unmarked) [Compound 27, 2-(2-Benzyl-3-oxo-2,3-dihydro-1H-isoindol-1-ylamine)-N-pyridin-2-yl-acetamide], the pEC50 is 5.74 and 6.05; the “EC100%” value is 4.5 µM and 2.6 µM. Moreover, the “% Activation @ 50 μM” value under setting [1] turned out to be 228%.
In turn, `O=C(COC1c2ccccc2C(=O)N1Cc1ccccc1)Nc1nccs1` (centres unmarked) [Compound 28, 2-(2-Benzyl-3-oxo-2,3-dihydro-1H-isoindol-1-yloxy)-N-thiazol-2-yl-acetamide] gave a negative-log EC50 (pEC50) of 4.95. Moreover, the activation at 50 µM under setting [1] was found to be 73%.
For the molecule `COc1ccc(CN2C(=O)c3ccccc3C2SCC(=O)Nc2nccs2)cc1` (centres unmarked) [Compound 29, 2-[2-(4-Methoxybenzyl)-3-oxo-2,3-dihydro-1H-isoindol-1-ylsulfanyl]-N-thiazol-2-yl-acetamide], the pEC50 is 5.36 and the “EC100%” value is 17.6 µM. The molecule further displayed an activation at 50 µM under setting [1] of 156%.
The molecule `O=C(CSC1c2ccccc2C(=O)N1Cc1ccc(Cl)cc1)Nc1nccs1` (centres unmarked) [Compound 30, 2-[2-(4-Chlorobenzyl)-3-oxo-2,3-dihydro-1H-isoindol-1-ylsulfanyl]-N-thiazol-2-yl-acetamide] had a pEC50 of 5.02. The same molecule displayed an activation at 50 µM under setting [1] of 102%.
In the case of `O=C(CSC1c2ccccc2C(=O)N1Cc1cccs1)Nc1cnccn1` (centres unmarked) [Compound 31, 2-(3-Oxo-2-thiophen-2-ylmethyl-2,3-dihydro-1H-isoindol-1-ylsulfanyl)-N-pyrazin-2-yl-acetamide], the pEC50 is 5.40 and the “EC100%” value is 12 µM. This molecule displayed an activation at 50 µM under setting [1] of 199%.
On to `O=C(CSC1c2ccccc2C(=O)N1Cc1ccco1)Nc1nccs1` (centres unmarked) [Compound 32, 2-(2-Furan-2-ylmethyl-3-oxo-2,3-dihydro-1H-isoindol-1-ylsulfanyl)-N-thiazol-2-yl-acetamide], for which the pEC50 was 5.04. Besides, under setting [1], the activation at 50 µM turned out to be 113%.
As to `CN(C)c1ccc(CN2C(=O)c3ccccc3C2SCC(=O)Nc2nccs2)cc1` (centres unmarked) [Compound 33, 2-[2-(4-Dimethylaminobenzyl)-3-oxo-2,3-dihydro-1H-isoindol-1-ylsulfanyl]-N-thiazol-2-yl-acetamide], the pEC50 was 5.59. Besides, the activation at 50 µM under setting [1] amounted to 229%.
For `COC(=O)c1ccc(NC(=O)CSC2c3ccccc3C(=O)N2Cc2cccs2)nc1` (centres unmarked) [Compound 34, 6-[2-(3-Oxo-2-thiophen-2-ylmethyl-2,3-dihydro-1H-isoindol-1-ylsulfanyl)-acetylamino]-nicotinic acid methyl ester], the pEC50 is 6.00 and the “EC100%” value was 4.1 µM. Under setting [1], the activation at 50 µM is 180%.
`COC(=O)c1ccc(NC(=O)CSC2c3ccccc3C(=O)N2Cc2ccccc2)nc1` (centres unmarked) [Compound 35, 6-[2-(2-Benzyl-3-oxo-2,3-dihydro-1H-isoindol-1-ylsulfanyl)-acetylamino]-nicotinic acid methyl ester]: the “EC100%” value was 2.9 µM and 3.0 µM. Also, the activation at 50 µM under setting [1] came to 171%.
The molecule `CCOC(=O)Cc1csc(NC(=O)CSC2c3ccccc3C(=O)N2Cc2cccs2)n1` (centres unmarked) [Compound 36, {2-[2-(3-Oxo-2-thiophen-2-ylmethyl-2,3-dihydro-1H-isoindol-1-ylsulfanyl)-acetylamino]-thiazol-4-yl}-acetic acid ethyl ester] gave a negative logarithm of the EC50 (pEC50) of 5.05. The activation at 50 µM under setting [1] was determined as 143%.
`COC(=O)c1ccc(NC(=O)COC2c3ccccc3C(=O)N2Cc2ccccc2)nc1` (centres unmarked) [Compound 37, 6-[2-(2-Benzyl-3-oxo-2,3-dihydro-1H-isoindol-1-yloxy)-acetylamino]-nicotinic acid methyl ester]: the pEC50 is 6.24 and the “EC100%” value turned out to be 1.57 µM. Moreover, the activation at 50 µM under setting [1] was determined as 256%.
